Assay results taken from PMC4167698, “Fatty Acid Esters of Phloridzin Induce Apoptosis of Human Liver Cancer Cells through Altered Gene Expression” (PLoS ONE, 2014).

Tests used:
HepG2 cells [1] = assay: MTS cell proliferation assay, HepG2; format: cell-based, human; details: for SI (selective index): EC50 of HP-F cells/EC50 on HepG2, 24 h; for EC50: MTS
Method: (§1) Cell viability was determined by using the MTS assay. In brief, HepG2 cells (5×10^3 cells/100 µL/well), MDA-MB-231 (5×10^3 cells/100 µL/well), THP-1 (25×10^3/100 µL/well), normal human and rat hepatocytes (1×10^4 cells/100 µL/well) were plated in triplicate, in a 96 well sterile flat bottom tissue culture plates. […] Thereby, cells were exposed to various concentrations (0.1, 1, 10, 25, 50, 75, 100 µM) of each treatment. Controls consist of cells with media containing DMSO (<0.5%), test blank wells contained the test compound in media with no cells and blank wells contained media with no cells. After additional 3, 6, 12, 18 or 24 h, 20 µL of the MTS reagent in combination with the electron coupling agent, phenazine methosulfate were added to the wells and cells were incubated in a humidified incubator for 3 h. Absorbance at 490 nm (OD490) was measured by using a Flurostar Optima microplate reader (BMG Labtech, Cary, NC, USA) to obtain the number of viable cells relative to the control population. Percentage of viability of the test compound treated cells are expressed as percentage compared to control (<0.5% DMSO). […] The selective index (SI) of the fatty acid esters of phloridzin is defined as the ratio of cytotoxicity (EC50 values) on normal HP-F cells to solid cancer HepG2, MDA-MB-231 cells (SI = EC50 on HP-F cells/EC50 on solid cancer cells). Samples with SI values greater than three were considered to have high selectivity towards cancer cells.

HepG2 cells [2] = assay: Human cancer drug targets RT2 profiler PCR array; format: cell-based
Method: Total RNA extraction was performed using Arum Total RNA minikit (Bio-Rad, Hercules, CA, USA). RNA concentration and purity was determined by measuring the absorbance using a NanoDrop (NanoDrop Technologies, Wilmington, DE, USA). RNA integrity was assessed by formaldehyde agarose gel electrophoresis. RNA (400 ng) was used to synthesize cDNA using RT^2 First Strand kit (SABiosciences, Frederick, MD, USA). RT^2 RNA QC PCR arrays (SABiosciences, Frederick, MD, USA) was used to assess the quality of cDNA samples before characterization with the human cancer drug targets RT^2 profiler PCR array (SABiosciences, Frederick, MD, USA). Gene expression profiles of 84 genes were investigated using the human cancer drug targets RT^2 profiler PCR array (PAHS-507ZD) on a Bio-Rad CFX Connect (Bio-Rad, Hercules, CA, USA) using RT^2 real-time SYBR green PCR master mix (SABiosciences, Frederick, MD, USA). […] Reproducibility was maintained by using three biological replicates from three individual experiments.

THP-1 cells = assay: MTS cell proliferation assay, THP-1; format: cell-based, human; details: for EC50: MTS
Method: as §1

[3] = system: normal human hepatocytes (HP-F); assay: MTS cell viability assay, normal human hepatocytes; format: cell-based; details: 24 h
Method: as §1

MDA-MB-231 cells = assay: MTS cell proliferation assay, MDA-MB-231; format: cell-based, human; details: for SI (selective index): EC50 of HP-F cells/EC50 on MDA-MB-231, 24 h; for EC50: MTS
Method: as §1

HepG2 cells [4] = assay: LDH release cytotoxicity assay; format: cell-based, human; details: HepG2, 100 µM, 6 h, relative to maximum release by 1% Triton X-100
Method: Lactate dehydrogenase (LDH) is a stable cytosolic enzyme that is released upon membrane damage in apoptotic/necrotic cells. LDH activity was measured using CytoTox 96 Non-Radioactive Cytotoxicity Assay (Promega, Madison, WI, USA), in which LDH released in culture supernatants is measured with a coupled enzymatic assay, resulting in conversion of a tetrazolium salt into a red formazan product. […] After centrifugation, the supernatant was removed to an assay plate, and the LDH released from the cells into culture medium was measured. The maximal release was obtained after treating control cells with 1% Triton X-100 for 30 min at room temperature. The apoptotic/necrotic percentage was expressed using the formula: (sample value/maximal release)×100%.

[5] = 84-gene array, vs vehicle control

CC/C=C\C/C=C\C/C=C\C/C=C\C/C=C\C/C=C\CCC(=O)OC[C@H]1O[C@@H](Oc2cc(O)cc(O)c2C(=O)CCc2ccc(O)cc2)[C@H](O)[C@@H](O)[C@@H]1O [Pz-DHA ester, DHA ester of Pz]
SI (selective index) (HepG2 cells [1]): 11.2
EC50 (HepG2 cells [1]; HepG2, 3 h): 76.9 ± 5.8 µM
EC50 (HepG2 cells [1]; HepG2, 6 h): 64.4 ± 5.9 µM
EC50 (HepG2 cells [1]; HepG2, 12 h): 56.2 ± 4.9 µM
EC50 (HepG2 cells [1]; HepG2, 18 h): 54.2 ± 3.9 µM
EC50 (HepG2 cells [1]; HepG2, 24 h): 51.9 ± 3.8 µM
number of genes down-regulated (more than two-fold) (HepG2 cells [2]; [5]): 41 genes
number of genes unaffected (HepG2 cells [2]; [5]): 35 genes
number of genes up-regulated (more than two-fold) (HepG2 cells [2]; [5]): 8 genes
Fold change of gene expression relative to control: BCL2 (HepG2 cells [2]; Apoptosis gene, RT-PCR array): −2.8 fold
Fold change of gene expression relative to control: AKT1 (HepG2 cells [2]; RT-PCR array): −6.1 fold
Fold change of gene expression relative to control: AKT2 (HepG2 cells [2]; RT-PCR array): −2.8 fold
Fold change of gene expression relative to control: AURKB (HepG2 cells [2]; RT-PCR array): −2.0 fold
Fold change of gene expression relative to control: CDK2 (HepG2 cells [2]; RT-PCR array): −2.0 fold
Fold change of gene expression relative to control: CDK9 (HepG2 cells [2]; RT-PCR array): −2.1 fold
Fold change of gene expression relative to control: EGFR (HepG2 cells [2]; RT-PCR array): −8.9 fold
Fold change of gene expression relative to control: ERBB2 (HepG2 cells [2]; RT-PCR array): −5.7 fold
Fold change of gene expression relative to control: ERBB3 (HepG2 cells [2]; RT-PCR array): −6.1 fold
Fold change of gene expression relative to control: FLT1 (HepG2 cells [2]; RT-PCR array): 16.5 fold
Fold change of gene expression relative to control: GRB2 (HepG2 cells [2]; RT-PCR array): −8.6 fold
Fold change of gene expression relative to control: HDAC1 (HepG2 cells [2]; RT-PCR array): −2.6 fold
Fold change of gene expression relative to control: HDAC4 (HepG2 cells [2]; RT-PCR array): −4.1 fold
Fold change of gene expression relative to control: HDAC6 (HepG2 cells [2]; RT-PCR array): −5.4 fold
Fold change of gene expression relative to control: HDAC7 (HepG2 cells [2]; RT-PCR array): −6.0 fold
Fold change of gene expression relative to control: HDAC11 (HepG2 cells [2]; RT-PCR array): −20.1 fold
Fold change of gene expression relative to control: IGF1R (HepG2 cells [2]; RT-PCR array): −4.2 fold
Fold change of gene expression relative to control: IGF2 (HepG2 cells [2]; RT-PCR array): −2.3 fold
Fold change of gene expression relative to control: IRF5 (HepG2 cells [2]; RT-PCR array): −2.3 fold
Fold change of gene expression relative to control: KDR (HepG2 cells [2]; RT-PCR array): −2.8 fold
Fold change of gene expression relative to control: KRAS (HepG2 cells [2]; RT-PCR array): −4.0 fold
Fold change of gene expression relative to control: MDM4 (HepG2 cells [2]; RT-PCR array): −2.1 fold
Fold change of gene expression relative to control: NF−κB (HepG2 cells [2]; RT-PCR array): −4.3 fold
Fold change of gene expression relative to control: PARP1 (HepG2 cells [2]; RT-PCR array): −5.4 fold
Fold change of gene expression relative to control: PDGFRA (HepG2 cells [2]; RT-PCR array): −2.8 fold
Fold change of gene expression relative to control: PDGFRB (HepG2 cells [2]; RT-PCR array): −16.8 fold
Fold change of gene expression relative to control: PIK3C2A (HepG2 cells [2]; RT-PCR array): −2.2 fold
Fold change of gene expression relative to control: PLK1 (HepG2 cells [2]; RT-PCR array): −2.9 fold
Fold change of gene expression relative to control: PRKCA (HepG2 cells [2]; RT-PCR array): −8.1 fold
Fold change of gene expression relative to control: PRKCD (HepG2 cells [2]; RT-PCR array): −2.1 fold
Fold change of gene expression relative to control: PRKCE (HepG2 cells [2]; RT-PCR array): −5.6 fold
Fold change of gene expression relative to control: TERT (HepG2 cells [2]; RT-PCR array): −5.6 fold
Fold change of gene expression relative to control: TOP2A (HepG2 cells [2]; RT-PCR array): −2.7 fold
Fold change of gene expression relative to control: TOP2B (HepG2 cells [2]; RT-PCR array): −2.3 fold
Fold change of gene expression relative to control: TP53 (HepG2 cells [2]; RT-PCR array): −7.4 fold
Fold change of gene expression relative to control: mTOR (HepG2 cells [2]; RT-PCR array): −3.6 fold
Fold change of gene expression relative to control: FLT1 (HepG2 cells [2]; RT-PCR array, listed as Phloridzin-DHA): +16.5 fold
SI (selective index) (THP-1 cells; EC50 of HP-F cells/EC50 on THP-1, 24 h): 21.3
EC50 (THP-1 cells; THP-1, 3 h): 65.8 ± 5.2 µM
EC50 (THP-1 cells; THP-1, 6 h): 49.5 ± 3.8 µM
EC50 (THP-1 cells; THP-1, 12 h): 42.7 ± 3 µM
EC50 (THP-1 cells; THP-1, 18 h): 35.8 ± 2.8 µM
EC50 (THP-1 cells; THP-1, 24 h): 27.3 ± 1.2 µM
EC50 [3]: > 100 µM
SI (selective index) (MDA-MB-231 cells): 10.5
EC50 (MDA-MB-231 cells; MDA-MB-231, 3 h): 132 ± 9.9 µM
EC50 (MDA-MB-231 cells; MDA-MB-231, 6 h): 83.7 ± 7.5 µM
EC50 (MDA-MB-231 cells; MDA-MB-231, 12 h): 70.2 ± 6.1 µM
EC50 (MDA-MB-231 cells; MDA-MB-231, 18 h): 62.6 ± 5.1 µM
EC50 (MDA-MB-231 cells; MDA-MB-231, 24 h): 55.5 ± 4.5 µM

CC/C=C\C/C=C\C/C=C\C/C=C\C/C=C\CCCC(=O)OC[C@H]1O[C@@H](Oc2cc(O)cc(O)c2C(=O)CCc2ccc(O)cc2)[C@H](O)[C@@H](O)[C@@H]1O [Pz-EPA ester, eicosapentaenoic acid ester (EPA) of Pz]
LDH release (HepG2 cells [4]): 82.7±1.5%
SI (selective index) (HepG2 cells [1]): 7.4
EC50 (HepG2 cells [1]; HepG2, 3 h): 39.4 ± 2.8 µM
EC50 (HepG2 cells [1]; HepG2, 6 h): 37.8 ± 1.9 µM
EC50 (HepG2 cells [1]; HepG2, 12 h): 36 ± 2.1 µM
EC50 (HepG2 cells [1]; HepG2, 18 h): 33.1 ± 2.4 µM
EC50 (HepG2 cells [1]; HepG2, 24 h): 26.8 ± 1.8 µM
EC50 (THP-1 cells; THP-1, 3 h): 27.9 ± 1.5 µM
EC50 (THP-1 cells; THP-1, 6 h): 19.9 ± 1.1 µM
EC50 (THP-1 cells; THP-1, 12 h): 17 ± 0.6 µM
EC50 (THP-1 cells; THP-1, 18 h): 15.8 ± 0.8 µM
EC50 (THP-1 cells; THP-1, 24 h): 14.8 ± 0.6 µM
EC50 [3]: > 100 µM
SI (selective index) (MDA-MB-231 cells): 7.5
EC50 (MDA-MB-231 cells; MDA-MB-231, 3 h): 37.9 ± 2.2 µM
EC50 (MDA-MB-231 cells; MDA-MB-231, 6 h): 33.6 ± 1.8 µM
EC50 (MDA-MB-231 cells; MDA-MB-231, 12 h): 32.6 ± 1.8 µM
EC50 (MDA-MB-231 cells; MDA-MB-231, 18 h): 31.5 ± 2.3 µM
EC50 (MDA-MB-231 cells; MDA-MB-231, 24 h): 26.5 ± 1.1 µM
